Results published in patent US20130344008A1, “NONCARIOUS MATERIAL AND ANTICARIOUS AGENT CONTAINING RARE SUGAR” (priority 2006, published 2013).

How the values were obtained:
S. mutans strain JCM5075 [1] = assay: Example 1: optical density and pH of S. mutans JCM5075 cultures in BHI broth with rare sugars, with or without sucrose; type: cell-based, Streptococcus mutans; details: for Optical density (OD) 12 hours later: OD600
From the text: S. mutans strains characteristically form insoluble glucan on addition of sucrose, to generate acids and reduce the pH of the culture medium, which is considered to cause decalcification of teeth on dental surface to form decayed teeth (the reason why the strains are designated bacteria causing decayed teeth). JCM 5075 of S. mutans strains and the Brain Heart Infusion (BHI) broth were used to assay the optical density (the increase of the number of the bacterial cells) and the pH change in individual rare sugar solutions with or without sucrose added. As the rare sugars, there were used D-fructose, L-fructose, D-sorbose, L-sorbose, D-psicose, L-psicose, D-tagatose and L-tagatose. The rare sugars used were supplied from the Rare Sugar Research Center, the National University Corporation Kagawa University.
The strain JCM5075 thawed from −80° C. stock was cultured for 48 hours, and was adjusted to OD 0.3. 100 μl of the resulting culture was added to each 2-ml portion of the BHI broths under individual conditions, to assay the optical density and the pH 24 hours later (observation with naked eyes and absorbance: OD600).
After collecting a part of the liquid culture and centrifuging the culture, the pH of the resulting supernatant was measured with a pH meter. The results are shown in Table 2 (0, 6, 8, 12 and 24 hours after the addition of the bacteria to the BHI broth) and FIG. 3.

[2] = tested on: S. mutans strain MT 8148 (JCM5175); assay: Example 2: bacterial growth (OD 660 nm) and pH of S. mutans culture in phenol red broth with 1% test substance; type: cell-based, Streptococcus mutans; details: PRB broth, 37° C., 48 hours later; for OD: bacterial growth, absorbance at 660 nm
Procedure: D-Psicose and L-psicose were used to assay the actions thereof against S. mutans. D-Psicose and L-psicose were supplied from the Rare Sugar Research Center, the National University Corporation Kagawa University. The S. mutans strain MT 8148 (JCM5175) was plated in a Brain Heart Infusion broth supplemented with agar for culturing at 37° C. for 48 hours. The liquid culture was inoculated in a fresh Brain Heart Infusion broth, for culturing at 37° C. for 24 hours. The liquid culture was inoculated in a phenol red broth (PRB broth) containing a test substance at 1%, for culturing at 37° C.; the bacterial growth (absorbance at 660 nm: OD) and the pH were assayed 48 hours later. Asa control, glucose, fructose, sucrose and Xylitol were used. After culturing for a given period of time, additionally, the optical density of apart of the liquid culture was measured with an absorptiometer (OD 660 nm).

[3] = tested on: S. mutans strain MT 8148 (JCM5175); assay: Example 4: cariostatic test with D-psicose and catechin, pH of culture in PRB broth; type: cell-based, Streptococcus mutans; details: for pH: PRB broth, 20 hours later
Procedure: A cariostatic test with D-psicose was carried out. Additionally, the effect of catechins added was also examined. D-Psicose was supplied from the Rare Sugar Research Center, the National University Corporation Kagawa University. As the catechin, Polyphenon 70A of Mitsui Norin Co., Ltd. was used. The S. mutans strain MT 8148 (JCM5175) was plated in a Brain Heart Infusion broth supplemented with agar, for culturing at 37° C. for 48 hours. Further, the resulting liquid culture was inoculated in a fresh Brain Heart Infusion broth, for culturing at 37° C. for 24 hours. The liquid preculture was inoculated in a phenol red broth (PRB broth) containing sugars and catechins at the following concentrations for culturing at 37° C.; 20 hours later, the pH was measured. As a control, sucrose was used.

caries = details: cited from earlier work
[4] = tested on: S. mutans strain (JCM5075); assay: Example 3: pH of S. mutans culture in BHI broth with test substance after 48-hour culturing; type: cell-based, Streptococcus mutans; details: 1% sucrose (control), BHI broth, after 48-hour culturing
Procedure: Allitol and D-sorbose were used to assay the actions thereof against S. mutans. Allitol and D-sorbose were supplied from the Rare Sugar Research Center, the National University Corporation Kagawa University. The S. mutans strain (JCM5075) was plated in a Brain Heart Infusion broth containing a 10% test substance, to measure the pH of the liquid culture after 48-hour culturing. As a control, 1% sucrose and 10% Xylitol were used.

S. mutans strain JCM5075 [5] = assay: Reference Example: formation of insoluble glucan with S. mutans, naked-eye observation; type: cell-based, Streptococcus mutans; details: sucrose added, BHI broth, anaerobic conditions, FIG. 1
Procedure: S. mutans strains characteristically form insoluble glucan on addition of sucrose, to reduce the pH of the culture medium, which is considered to cause decalcification of dental surface to form decayed teeth (the reason why the strains are designated bacteria causing decayed teeth). The S. mutans strain JCM5075 was plated in a Brain Heart Infusion (BHI) broth, for culturing under anaerobic conditions, to visually determine the bacterial growth (potency for forming insoluble glucan: optical density) with naked eyes.

[6] = 5% test substance + 1% sucrose, BHI broth
[7] = 5% test substance, no sucrose, BHI broth
[8] = 10% test substance + 1% sucrose, BHI broth
[9] = 10% test substance, no sucrose, BHI broth

Q: Which results are given for O=C(CO)[C@H](O)[C@H](O)[C@H](O)CO [D-psicose]?
A: pH 0 hour later (S. mutans strain JCM5075 [1]; [6]): 7.4; pH 6 hours later (S. mutans strain JCM5075 [1]; [6]): 7.3; pH 8 hours later (S. mutans strain JCM5075 [1]; [6]): 7.2; pH 12 hours later (S. mutans strain JCM5075 [1]; [6]): 7.2; pH 24 hours later (S. mutans strain JCM5075 [1]; [6]): 6.4; pH 0 hour later (S. mutans strain JCM5075 [1]; [7]): 7.4; pH 6 hours later (S. mutans strain JCM5075 [1]; [7]): 7.3; pH 8 hours later (S. mutans strain JCM5075 [1]; [7]): 7.2; pH 12 hours later (S. mutans strain JCM5075 [1]; [7]): 7.2; pH 24 hours later (S. mutans strain JCM5075 [1]; [7]): 7.0; pH 0 hour later (S. mutans strain JCM5075 [1]; [8]): 7.3; pH 6 hours later (S. mutans strain JCM5075 [1]; [8]): 7.2; pH 8 hours later (S. mutans strain JCM5075 [1]; [8]): 7.2; pH 12 hours later (S. mutans strain JCM5075 [1]; [8]): 7.2; pH 24 hours later (S. mutans strain JCM5075 [1]; [8]): 7.1; Optical density (OD) 12 hours later (S. mutans strain JCM5075 [1]; 10% test substance, BHI broth): 0.158; pH 0 hour later (S. mutans strain JCM5075 [1]; [9]): 7.3; pH 6 hours later (S. mutans strain JCM5075 [1]; [9]): 7.2; pH 8 hours later (S. mutans strain JCM5075 [1]; [9]): 7.2; pH 12 hours later (S. mutans strain JCM5075 [1]; [9]): 7.2; pH 24 hours later (S. mutans strain JCM5075 [1]; [9]): 7.2; suppression of the pH reduction (S. mutans strain JCM5075 [1]; 24 hours later, also with 1% sucrose addition, FIG. 3): most highly suppressed the pH reduction; suppression of OD increase compared with no addition (S. mutans strain JCM5075 [1]; BHI broth, FIG. 2 / Table 1): suppression of OD increase was observed; pH [2]: 5.9; OD [2]: 0.02; pH ([3]; 3.3% test substance + 0.25% sucrose): 4.4; pH ([3]; 5.0% test substance + 0.25% sucrose): 5.5; action of suppressing the pH reduction in a culture medium with addition of sucrose ([3]; D-psicose at a concentration of 5%, 0.25% sucrose): exerted an action of suppressing the pH reduction

Q: Which “effective concentration against caries in the test system” value (caries) does the source give for Oc1cc(O)c2c(c1)O[C@H](c1cc(O)c(O)c(O)c1)[C@@H](O)C2 [gallocatechin] here?
A: 125 µg/mL

Q: Which results are given for OC[C@H]1O[C@@](CO)(O[C@H]2O[C@H](CO)[C@@H](O)[C@H](O)[C@H]2O)[C@@H](O)[C@@H]1O [sucrose, reference compound]?
A: pH 0 hour later (S. mutans strain JCM5075 [1]; 1% sucrose alone, BHI broth): 7.4; pH 6 hours later (S. mutans strain JCM5075 [1]; 1% sucrose alone, BHI broth): 7.2; pH 8 hours later (S. mutans strain JCM5075 [1]; 1% sucrose alone, BHI broth): 7.2; pH 12 hours later (S. mutans strain JCM5075 [1]; 1% sucrose alone, BHI broth): 6.7; pH 24 hours later (S. mutans strain JCM5075 [1]; 1% sucrose alone, BHI broth): 4.7; pH change 24 hours later (in words) (S. mutans strain JCM5075 [1]; 1% sucrose, or 10% Xylitol+1% sucrose, or 10% fructose+1% sucrose, FIG. 3): highly inclined to acidity; Optical density (OD) 12 hours later (S. mutans strain JCM5075 [1]; 1% test substance, BHI broth): 0.060; precipitation of bacterial masses (insoluble glucan) under observation with naked eyes (S. mutans strain JCM5075 [1]; addition of 1% sucrose, addition of 10% D-fructose, 24 hours later): caused the precipitation of bacterial masses (insoluble glucan); pH [2]: 3.9; OD [2]: 0.14; pH [4]: 4.0; pH ([3]; 0.25% sucrose alone, 37° C.): 4.5; formation of insoluble glucan observed with naked eyes (S. mutans strain JCM5075 [5]): formed insoluble glucan
